# Measurements taken from patent US20090053280A1, “COATING STENTS WITH CYCLIC RGD PEPTIDES OR MIMETICS” (priority 2007, published 2009).
# Entries after “also recorded” stand apart in the source; their conditions may differ.
# System: Human umbilical vein endothelial cells
# Test: Millicell migration assay of HUVECs towards a cyclic RGD peptide coated membrane
# Assay type: cell-based
# Details: 2 hours, uncoated membranes
# Procedure: FIG. 7 (Example 5): Bar graph showing the results of migration assays utilizing specialized Millicell culture plates for in vitro testing. HUVECs were seeded onto the inside surface of Millicell membranes and semi-quantified following migration through a microporous membrane at the outside surface after two hours of incubation.
# Millicell culture plate inserts from Millipore were coated with cyclic RGD peptide at the outside surface of the microporous membrane only to stimulate haplotactic cell migration. Human umbilical vein endothelial cells (HUVCEs) were loaded into millicell chambers in completed medium in the presence or absence of paclitaxel or sirolimus, and subsequently incubated for 2 hours at 37 C.°.
smiles,measurement,value
CC(=O)O[C@H]1C(=O)[C@@]2(C)[C@H]([C@H](OC(=O)c3ccccc3)[C@]3(O)C[C@H](OC(=O)[C@H](O)[C@@H](NC(=O)c4ccccc4)c4ccccc4)C(C)=C1C3(C)C)[C@]1(OC(C)=O)CO[C@@H]1C[C@@H]2O [paclitaxel],Cell migration in the presence of the antiproliferative drug,marked decrease; also recorded: almost completely abolished
